# Key:
# ABT-737 = compound: CN(C)CC[C@H](CSc1ccccc1)Nc1ccc(S(=O)(=O)NC(=O)c2ccc(N3CCN(Cc4ccccc4-c4ccc(Cl)cc4)CC3)cc2)cc1[N+](=O)[O-] [ABT-737]
# Saracatinib/AZD0530 = compound: CN1CCN(CCOc2cc(OC3CCOCC3)c3c(Nc4c(Cl)ccc5c4OCO5)ncnc3c2)CC1 [Saracatinib/AZD0530]
# Flavopiridol [1] = compound: T1, CN1CC[C@H](c2c(O)cc(O)c3c(=O)cc(-c4ccccc4Cl)oc23)[C@H](O)C1 [Flavopiridol]
# Taselisib/GDC0032 = compound: Cc1nc(-c2cn3c(n2)-c2ccc(-c4cnn(C(C)(C)C(N)=O)c4)cc2OCC3)n(C(C)C)n1 [Taselisib/GDC0032]
# [2] = compound: CO[C@@H](C)Cn1c(=O)n(C)c2cnc3ccc(-c4cncc(C(C)(C)O)c4)cc3c21
# BSJ-03-123 = compound: CC(=O)c1c(C)c2cnc(Nc3ccc(N4CCN(CCOCCOCCOCCNC(=O)COc5cccc6c5C(=O)N(C5CCC(=O)NC5=O)C6=O)CC4)cn3)nc2n(C2CCCC2)c1=O [BSJ-03-123]; assay: GR value, 72 h; higher = faster growth (1 = untreated, <0 = killing);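 also: breast cancer and non-malignant breast epithelial lines, nine half-log doses, viable cells counted by Hoechst and LIVE/DEAD dye imaging versus time-zero plates and DMSO controls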
# [3] = compound: CC(=O)c1c(C)c2cnc(Nc3ccc(N4CCNCC4)cn3)nc2n(C2CCCC2)c1=O; assay: as above
# [4] = compound: CCc1cnn2c(NCc3ccc[n+]([O-])c3)cc(N3CCCC[C@H]3CCO)nc12; assay: as above
# [5] = compound: CCN1CCN(Cc2ccc(Nc3ncc(F)c(-c4cc(F)c5nc(C)n(C(C)C)c5c4)n3)nc2)CC1; assay: as above
# Flavopiridol [6] = compound: T1, Flavopiridol; assay: as above
# THZ1 = compound: CN(C)C/C=C/C(=O)Nc1ccc(C(=O)Nc2cccc(Nc3ncc(Cl)c(-c4c[nH]c5ccccc45)n3)c2)cc1 [THZ1]; assay: as above
# Neratinib/HKI272 = compound: CCOc1cc2ncc(C#N)c(Nc3ccc(OCc4ccccn4)c(Cl)c3)c2cc1NC(=O)/C=C/CN(C)C [Neratinib/HKI272]; assay: as above
# YKL-5-124 = compound: C=CC(=O)Nc1ccc(C(=O)Nc2[nH]nc3c2CN(C(=O)N[C@H](CN(C)C)c2ccccc2)C3(C)C)cc1 [YKL-5-124]; assay: as above
# LEE011/Ribociclib = compound: CN(C)C(=O)c1cc2cnc(Nc3ccc(N4CCNCC4)cn3)nc2n1C1CCCC1 [LEE011/Ribociclib]; assay: as above
# THZ531 = compound: CN(C)C/C=C/C(=O)Nc1ccc(C(=O)N2CCC[C@@H](Nc3ncc(Cl)c(-c4c[nH]c5ccccc45)n3)C2)cc1 [THZ531]; assay: as above
# 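For GR50, 72 h in this document: breast cancer and non-malignant breast epithelial cell lines, Deep Dye Drop or Dye Drop imaging, nine half-log doses, GR normalized to time-zero plates and DMSO-only controls.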
cell line,measurement,setting,value
HCC1395,"GR50, 72 h",ABT-737,> 10 µM
same,"GR50, 72 h",Saracatinib/AZD0530,3.76 µM
same,"GR50, 72 h",Flavopiridol [1],0.126 µM
same,"GR50, 72 h",Taselisib/GDC0032,2.14 µM
same,"GR50, 72 h",[2],0.00497 µM
same,GR value,BSJ-03-123; 0.001 µM,0.847 GR
same,GR value,BSJ-03-123; 0.003162 µM,0.925 GR
same,GR value,BSJ-03-123; 0.01 µM,0.769 GR
same,GR value,BSJ-03-123; 0.03162 µM,0.767 GR
same,GR value,BSJ-03-123; 0.1 µM,0.774 GR
same,GR value,BSJ-03-123; 0.3162 µM,0.692 GR
same,GR value,BSJ-03-123; 1 µM,0.572 GR
same,GR value,BSJ-03-123; 3.162 µM,0.534 GR
same,GR value,BSJ-03-123; 10 µM,-0.188 GR
same,GR value,[3]; 0.0003162 µM,1.12 GR
same,GR value,[3]; 0.001 µM,1.07 GR
same,GR value,[3]; 0.003162 µM,1.06 GR
same,GR value,[3]; 0.01 µM,0.944 GR
same,GR value,[3]; 0.03162 µM,0.702 GR
same,GR value,[3]; 0.1 µM,0.495 GR
same,GR value,[3]; 0.3162 µM,0.444 GR
same,GR value,[3]; 1 µM,0.386 GR
same,GR value,[3]; 3.162 µM,0.324 GR
same,GR value,[4]; 0.0001 µM,1.09 GR
same,GR value,[4]; 0.0003162 µM,1.1 GR
same,GR value,[4]; 0.001 µM,1.05 GR
same,GR value,[4]; 0.003162 µM,1.04 GR
same,GR value,[4]; 0.01 µM,0.649 GR
same,GR value,[4]; 0.03162 µM,-0.319 GR
same,GR value,[4]; 0.1 µM,-0.482 GR
same,GR value,[4]; 0.3162 µM,-0.507 GR
same,GR value,[4]; 1 µM,-0.488 GR
same,GR value,[5]; 0.001 µM,0.922 GR
same,GR value,[5]; 0.003162 µM,0.928 GR
same,GR value,[5]; 0.01 µM,0.734 GR
same,GR value,[5]; 0.03162 µM,0.594 GR
same,GR value,[5]; 0.1 µM,0.387 GR
same,GR value,[5]; 0.3162 µM,0.361 GR
same,GR value,[5]; 1 µM,0.283 GR
same,GR value,[5]; 3.162 µM,0.0357 GR
same,GR value,[5]; 10 µM,-0.543 GR
same,GR value,Flavopiridol [6]; 0.0001 µM,1.02 GR
same,GR value,Flavopiridol [6]; 0.0003162 µM,0.885 GR
same,GR value,Flavopiridol [6]; 0.001 µM,0.933 GR
same,GR value,Flavopiridol [6]; 0.003162 µM,0.826 GR
same,GR value,Flavopiridol [6]; 0.01 µM,0.75 GR
same,GR value,Flavopiridol [6]; 0.03162 µM,0.973 GR
same,GR value,Flavopiridol [6]; 0.1 µM,0.683 GR
same,GR value,Flavopiridol [6]; 0.3162 µM,-0.0127 GR
same,GR value,Flavopiridol [6]; 1 µM,-0.672 GR
same,GR value,THZ1; 0.0001 µM,1 GR
same,GR value,THZ1; 0.0003162 µM,1.01 GR
same,GR value,THZ1; 0.001 µM,0.982 GR
same,GR value,THZ1; 0.003162 µM,0.985 GR
same,GR value,THZ1; 0.01 µM,1.04 GR
same,GR value,THZ1; 0.03162 µM,0.241 GR
same,GR value,THZ1; 0.1 µM,-0.42 GR
same,GR value,THZ1; 0.3162 µM,-0.546 GR
same,GR value,THZ1; 1 µM,-0.795 GR
same,GR value,Neratinib/HKI272; 0.0003162 µM,1.05 GR
same,GR value,Neratinib/HKI272; 0.001 µM,1.07 GR
same,GR value,Neratinib/HKI272; 0.003162 µM,1.14 GR
same,GR value,Neratinib/HKI272; 0.01 µM,1 GR
same,GR value,Neratinib/HKI272; 0.03162 µM,1.06 GR
same,GR value,Neratinib/HKI272; 0.1 µM,0.916 GR
same,GR value,Neratinib/HKI272; 0.3162 µM,0.741 GR
same,GR value,Neratinib/HKI272; 1 µM,0.521 GR
same,GR value,Neratinib/HKI272; 3.162 µM,0.0073 GR
same,GR value,YKL-5-124; 0.001 µM,0.63 GR
same,GR value,YKL-5-124; 0.003162 µM,0.375 GR
same,GR value,YKL-5-124; 0.01 µM,0.275 GR
same,GR value,YKL-5-124; 0.03162 µM,0.158 GR
same,GR value,YKL-5-124; 0.1 µM,0.0856 GR
same,GR value,YKL-5-124; 0.3162 µM,0.0979 GR
same,GR value,YKL-5-124; 1 µM,0.0594 GR
same,GR value,YKL-5-124; 3.162 µM,-0.0428 GR
same,GR value,YKL-5-124; 10 µM,-0.311 GR
same,GR value,LEE011/Ribociclib; 0.001 µM,0.88 GR
same,GR value,LEE011/Ribociclib; 0.003162 µM,0.843 GR
same,GR value,LEE011/Ribociclib; 0.01 µM,0.691 GR
same,GR value,LEE011/Ribociclib; 0.03162 µM,0.847 GR
same,GR value,LEE011/Ribociclib; 0.1 µM,0.657 GR
same,GR value,LEE011/Ribociclib; 0.3162 µM,0.674 GR
same,GR value,LEE011/Ribociclib; 1 µM,0.569 GR
same,GR value,LEE011/Ribociclib; 3.162 µM,0.553 GR
same,GR value,LEE011/Ribociclib; 10 µM,0.415 GR
same,GR value,THZ531; 0.0001 µM,1.14 GR
same,GR value,THZ531; 0.0003162 µM,0.962 GR
same,GR value,THZ531; 0.001 µM,0.995 GR
same,GR value,THZ531; 0.003162 µM,0.947 GR
same,GR value,THZ531; 0.01 µM,0.976 GR
same,GR value,THZ531; 0.03162 µM,0.76 GR
same,GR value,THZ531; 0.1 µM,0.408 GR
same,GR value,THZ531; 0.3162 µM,-0.251 GR
same,GR value,THZ531; 1 µM,-0.587 GR

# Source: the supplement of paper PMC9663587
